Data taken from US9815790B2, “Chemically modified quinoline and quinolone derivatives useful as CB-1 inverse agonists” (Janssen Pharmaceutica NV, priority 2015, dated 2017).

Key:
[1] = target: CB-1 receptor (Human Cannabinoid receptor 1) (Homo sapiens (Human), UniProt P21554); test: cAMP HTRF assay, CB-1 inverse agonism in stably transfected HEK-293 cells; format: cell-based; details: 250 nM Forskolin, mean where tested more than once, read-out: CB1 EC50
From the text: (§1) CB1 and CB2 receptors are Gi-coupled GPCR. Activation of CB1 and CB2 receptors results in a decrease in cAMP production. An inverse agonist of the CB1 or CB2 receptor results in the opposite effect, an increase of cAMP production. The principle of this assay is based on HTRF® technology (Homogeneous Time-Resolved Fluorescence). The method is a competitive immunoassay between native cAMP produced by cells and the cAMP labeled with the fluorophore d2. The tracer binding is quantified by a Mab anti-cAMP labeled with Eu3+TBP-NHS Cryptate (supplied as part of the assay kit). The specific signal (i.e. energy transfer) is inversely proportional to the concentration of cAMP in the standard or sample.
(§2) Human CB (Cannabinoid receptor 1) was stably transfected in HEK-293 cells (DiscoveRx, cat: 93-0200C1). Human CB2R (Cannabinoid receptor 2) was stably transfected in HEK-293 cells (DiscoveRx, cat: 93-0201C1). Cell cultures were maintained in media: DMEM (Invitrogen Cat#12430-054) supplemented with 10% HI FBS (Invitrogen Cat#16140-071), 1% L-glutamine (Invitrogen Cat#25030-081), 0.2 mg/mL Hygromycin B (Invitrogen Cat#10687-010), 600 μg/mL G418 (Invitrogen Cat#10131-035), and 1× Penn/Strep (Invitrogen 15140-122). After cell expansion, aliquots were cryo-stored in media containing 5% DMSO (Pierce Cat#20684).
(§3) One day prior to experiments media was warmed to 37° C. and the cryo-stored cells were thawed in a 37° C. water bath. The cells were then added to media (10× volume) and the mixture was centrifuged at 1000 RPM for 5 min. The supernate was removed and the cells were re-suspended in media. A sample of the cell suspension was evaluated on a Cedex XS automated cell counter (Innovatis Systems) to determine viable cells/mL. Additional media was added to the cells to achieve a final cell density of 4E5 cells/mL. The cells were then plated into 384 well PDL white solid bottom plates (Greiner, Cat#781945) at 20 μL per well using a Multidrop (Thermo Scientific). Cells were removed from Row P (location of cAMP standards). Two columns of cells were plated into a clear bottom 384 well PDL coated plate (Greiner, Cat#781944) to view confluence the day of the assay. The cell plates were lidded and stored for 15 minutes in a hood, then transferred to an incubator (37° C., 5% CO2, 95% humidity) overnight.
(§4) Test compounds were solubilized in DMSO at 10 mM or for pegylated compounds 4 or 1 mM. DMSO was added to all wells of 384 well V bottom polystyrene plate (Greiner, Cat#781280) except to columns 1 and 13, rows O and P and wells M13-M23 and N13-N23. Test compounds (60 μL, 10 mM or 4 mM or 1 mM) were added to Column 1 and 13 (A1 through N1 and A13 through L13). Test compounds were serially diluted ⅓ by transferring and mixing 20 μL sample with 40 μL DMSO.
(§5) DMSO (40 μL) was added to wells of 384 well V bottom polystyrene plate: O2 through O11, M14 through M23, N14 through N23, and O14 through O23. AM630 (also known as [6-iodo-2-methyl-1-[2-(4-morpholinyl)ethyl]-1H-indol-3-yl](4-methoxyphenyl)-methanone, Cayman Chemical, Cat#10006974) (60 μL, 10 mM) was added to 01; and 1-(2,4-dichlorophenyl)-7-[(4-fluorophenyl)methylene]-4,5,6,7-tetrahydro-N-1-piperidinyl-1H-indazole-3-carboxamide (60 μL, 10 mM) was added to N13. The control was serially diluted ⅓ by transferring and mixing 20 μL sample with 40 μL DMSO. This process resulted 11 doses per control, 10 mM to 0.17 μM.
(§6) Cells plated the day prior to the assay in clear bottom plates were viewed on an inverse microscope to ensure confluency in the range of 60-75%. […]

[2] = target: CB-2 receptor (Human CB2R, Cannabinoid receptor 2) (Homo sapiens (Human), UniProt P34972); test: cAMP HTRF assay, CB-2 in stably transfected HEK-293 cells; format: cell-based; details: 250 nM Forskolin, mean where tested more than once, read-out: CB2 EC50
From the text: as §1, §2, §3, §4, §5, §6

Sequence of CB-1 receptor (Human Cannabinoid receptor 1) (P21554 whole entry): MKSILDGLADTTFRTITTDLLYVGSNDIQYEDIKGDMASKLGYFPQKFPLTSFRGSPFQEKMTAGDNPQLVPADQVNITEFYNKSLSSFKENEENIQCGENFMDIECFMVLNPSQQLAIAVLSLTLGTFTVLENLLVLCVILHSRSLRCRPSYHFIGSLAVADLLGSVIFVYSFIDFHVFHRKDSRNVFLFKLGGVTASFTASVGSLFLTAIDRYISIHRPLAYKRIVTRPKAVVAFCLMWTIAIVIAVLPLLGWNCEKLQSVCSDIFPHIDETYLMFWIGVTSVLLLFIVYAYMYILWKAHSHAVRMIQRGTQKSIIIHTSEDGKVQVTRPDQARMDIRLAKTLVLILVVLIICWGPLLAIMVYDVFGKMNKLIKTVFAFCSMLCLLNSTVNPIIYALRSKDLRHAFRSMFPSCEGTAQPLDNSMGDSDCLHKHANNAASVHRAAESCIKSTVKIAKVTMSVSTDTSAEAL
Sequence of CB-2 receptor (Human CB2R, Cannabinoid receptor 2) (P34972 whole entry): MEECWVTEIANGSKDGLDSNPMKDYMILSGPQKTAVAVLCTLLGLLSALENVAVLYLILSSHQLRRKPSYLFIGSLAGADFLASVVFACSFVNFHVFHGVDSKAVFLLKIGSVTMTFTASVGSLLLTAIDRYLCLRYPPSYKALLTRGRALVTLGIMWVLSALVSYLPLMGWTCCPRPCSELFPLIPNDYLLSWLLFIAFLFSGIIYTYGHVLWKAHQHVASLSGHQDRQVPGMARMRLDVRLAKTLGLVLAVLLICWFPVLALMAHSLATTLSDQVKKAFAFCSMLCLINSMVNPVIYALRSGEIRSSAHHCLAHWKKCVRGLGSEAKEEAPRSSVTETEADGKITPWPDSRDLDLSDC

## COCCOCCOCCOCCOCCOCCOCCOCCOCCOCCOCCOCCNC(=O)CCCCCOc1cc(NC2CCN(S(=O)(=O)C(F)(F)F)CC2)c2cc(C(c3ccc(Cl)cc3)c3ccc(Cl)cc3)ccc2n1 [Cpd 6]
[1]
  EC50: 19 nM
[2]
  EC50: 3000 nM

## O=S(=O)(N1CCC(Nc2cc(OCCOCCOCCO)nc3ccc(C(c4ccc(Cl)cc4)c4ccc(Cl)cc4)cc23)CC1)C(F)(F)F [Cpd 8]
[1]
  EC50: 52 nM
[2]
  EC50: > 10000 nM

## O=S(=O)(N1CCC(Nc2cc(OCCOCCOCCOCCOCCOCCO)nc3ccc(C(c4ccc(Cl)cc4)c4ccc(Cl)cc4)cc23)CC1)C(F)(F)F [Cpd 9]
[1]
  EC50: 150 nM
[2]
  EC50: > 10000 nM

## O=S(=O)(N1CCC(Nc2cc(OCCOCCOCCOCCOCCOCCOc3ccc(CO)cc3)nc3ccc(C(c4ccc(Cl)cc4)c4ccc(Cl)cc4)cc23)CC1)C(F)(F)F [Cpd 11]
[1]
  EC50: 61 nM
[2]
  EC50: 3110 nM

## NNC(=O)CCOCCOCCOCCOCCOCCOCCOCCOCCOCCOCCOCCOCCNC(=O)OCCOCCOCCOc1cc(NC2CCN(S(=O)(=O)C(F)(F)F)CC2)c2cc(C(c3ccc(Cl)cc3)c3ccc(Cl)cc3)ccc2n1 [Cpd 12]
[1]
  EC50: 94 nM
[2]
  EC50: 5400 nM

## COCCOCCOCCOCCOCCOCCOCCOCCOCCOCCOCCOCCNC(=O)OCc1ccc(OCCOCCOCCOCCOCCOCCOc2cc(NC3CCN(S(=O)(=O)C(F)(F)F)CC3)c3cc(C(c4ccc(Cl)cc4)c4ccc(Cl)cc4)ccc3n2)cc1 [Cpd 13]
[1]
  EC50: 240 nM
[2]
  EC50: 4060 nM

## O=C(O)CCOCCOCCOCCOCCOCCOCCOCCOCCOCCOCCOCCOCCOc1cc(C(c2ccc(Cl)cc2)c2ccc(Cl)cc2)cc2c(NC3CCN(S(=O)(=O)C(F)(F)F)CC3)ccnc12 [Cpd 17]
[1]
  EC50: 77 nM
[2]
  EC50: 740 nM

## COCCOCCOc1ccc(Nc2cc(=O)[nH]c3ccc(C(c4ccc(Cl)cc4)c4ccc(Cl)cc4)cc23)cc1 [Cpd 20, 6-[bis(4-chlorophenyl)methyl]-4-([4-[2-(2-methoxyethoxy)ethoxy]phenyl]amino)quinolin-2-ol]
[1]
  EC50: 47 nM
[2]
  EC50: 3300 nM

## COCCOCCOCCOCCn1c(=O)cc(NC2CCN(S(=O)(=O)C(F)(F)F)CC2)c2cc(C(c3ccc(Cl)cc3)c3ccc(Cl)cc3)ccc21 [Cpd 21]
[1]
  EC50: 390 nM
[2]
  EC50: > 10000 nM
